Data taken from ChEMBL document CHEMBL3046274, “Toxicity of imidacloprid to developmental stages of Rhynchophorus ferrugineus (Curculionidae: Coleoptera): Laboratory and field tests” (Crop Prot, 2006).
Active and inactive are the calls of the source. No cut-off for these calls is given here.

What was measured:
[1] = system: Rhynchophorus ferrugineus; assay: Pesticidal activity against adult Rhynchophorus ferrugineus (red palm weevil) assessed as mortality at 1.5 ppm, po at 114 hr post-treatment relative to control; format: functional
[2] = system: Rhynchophorus ferrugineus; assay: Pesticidal activity against adult Rhynchophorus ferrugineus (red palm weevil) assessed as time required for reversible knockdown at 1.5 ml/l administered topically; format: functional
[3] = system: Rhynchophorus ferrugineus; assay: Contact toxicity against Rhynchophorus ferrugineus (red palm weevil) adults assessed as time required for 50% mortality at 2.5 ml/l for 5 min; format: functional
[4] = system: Rhynchophorus ferrugineus; assay: Pesticidal activity against adult Rhynchophorus ferrugineus (red palm weevil) assessed as time required for 100% mortality at 2.5 ml/l administered topically; format: functional
[5] = system: Rhynchophorus ferrugineus; assay: Contact toxicity against Rhynchophorus ferrugineus (red palm weevil) adults assessed as time required for 50% mortality at 1.5 ml/l for 2 min; format: functional
[6] = system: Rhynchophorus ferrugineus; assay: Pesticidal activity against Rhynchophorus ferrugineus (red palm weevil) cocoons assessed as time required for total mortality at 1.5 ml/l administered by dipping for 10 secs; format: functional
[7] = system: Rhynchophorus ferrugineus; assay: Pesticidal activity against adult Rhynchophorus ferrugineus (red palm weevil) assessed as mortality at 1.5 ppm, po at 48 hr post-treatment relative to control; format: functional
[8] = system: Rhynchophorus ferrugineus; assay: Pesticidal activity against Rhynchophorus ferrugineus (red palm weevil) larvae assessed as mortality at 4 ppm, po at 48 hr post-treatment relative to control; format: functional
[9] = system: Rhynchophorus ferrugineus; assay: Contact toxicity against Rhynchophorus ferrugineus (red palm weevil) adults assessed as time required for 50% mortality at 3.5 ml/l for 5 min; format: functional
[10] = system: Rhynchophorus ferrugineus; assay: Contact toxicity against Rhynchophorus ferrugineus (red palm weevil) adults assessed as time required for 100% mortality at 3.5 ml/l for 5 min; format: functional
[11] = system: Rhynchophorus ferrugineus; assay: Pesticidal activity against adult Rhynchophorus ferrugineus (red palm weevil) assessed as mortality at 0.5 ppm, po at 48 hr post-treatment relative to control; format: functional
[12] = system: Rhynchophorus ferrugineus; assay: Pesticidal activity against Rhynchophorus ferrugineus (red palm weevil) larvae assessed as mortality at 1000 ppm administered topically at 48 hr post-treatment; format: functional
[13] = system: Rhynchophorus ferrugineus; assay: Pesticidal activity against adult Rhynchophorus ferrugineus (red palm weevil) infested date palm tree assessed as disorientation of collected live stage larvae at 20 ml/4l of water applied through soil-drench irrigation measured after 3 weeks relative to control; format: functional, organism-based
[14] = system: Rhynchophorus ferrugineus; assay: Pesticidal activity against adult Rhynchophorus ferrugineus (red palm weevil) assessed as mortality at 0.5 ppm, po at 18 hr post-treatment relative to control; format: functional
[15] = system: Rhynchophorus ferrugineus; assay: Pesticidal activity against adult Rhynchophorus ferrugineus (red palm weevil) assessed as mortality at 1.5 ppm, po at 18 hr post-treatment relative to control; format: functional
[16] = system: Rhynchophorus ferrugineus; assay: Pesticidal activity Rhynchophorus ferrugineus (red palm weevil) larvae assessed as time required after hatching for 100% mortality at 2.5 ml/l administered topically measured up to 14 days relative to control; format: functional
[17] = system: Rhynchophorus ferrugineus; assay: Pesticidal activity against Rhynchophorus ferrugineus (red palm weevil) cocoons assessed as mortality at 3.5 ml/l administered by dipping for 3 min measured within 3 days; format: functional
[18] = system: Rhynchophorus ferrugineus; assay: Contact toxicity against Rhynchophorus ferrugineus (red palm weevil) adults assessed as time required for 50% mortality at 2.5 ml/l for 2 min; format: functional
[19] = system: Rhynchophorus ferrugineus; assay: Pesticidal activity against Rhynchophorus ferrugineus (red palm weevil) larvae assessed as mortality at 0.5 ppm, po at 90 hr post-treatment relative to control; format: functional
[20] = system: Rhynchophorus ferrugineus; assay: Pesticidal activity against Rhynchophorus ferrugineus (red palm weevil) cocoon assessed as mortality at 1.5 ppm administered by dipping for 3 min measured at 24 hr post-treatment relative to control; format: functional
[21] = system: Rhynchophorus ferrugineus; assay: Pesticidal activity against adult Rhynchophorus ferrugineus (red palm weevil) assessed as mortality at 500 ppm administered topically at 72 hr post-treatment; format: functional
[22] = system: Rhynchophorus ferrugineus; assay: Pesticidal activity against adult Rhynchophorus ferrugineus (red palm weevil) assessed as mortality at 2 ppm, po at 48 hr post-treatment relative to control; format: functional
[23] = system: Rhynchophorus ferrugineus; assay: Pesticidal activity against Rhynchophorus ferrugineus (red palm weevil) larvae assessed as mortality at 0.5 ppm, po at 114 hr post-treatment relative to control; format: functional
[24] = system: Rhynchophorus ferrugineus; assay: Pesticidal activity against Rhynchophorus ferrugineus (red palm weevil) larvae assessed as mortality at 1 ppm, po at 90 hr post-treatment relative to control; format: functional
[25] = system: Rhynchophorus ferrugineus; assay: Pesticidal activity against Rhynchophorus ferrugineus (red palm weevil) cocoon assessed as mortality at 1 ppm administered by dipping for 3 min measured at 24 hr post-treatment relative to control; format: functional
[26] = system: Rhynchophorus ferrugineus; assay: Pesticidal activity against adult Rhynchophorus ferrugineus (red palm weevil) assessed as mortality at 100 ppm administered topically at 48 hr post-treatment; format: functional
[27] = system: Rhynchophorus ferrugineus; assay: Pesticidal activity against Rhynchophorus ferrugineus (red palm weevil) cocoon assessed as mortality at 4 ppm administered by dipping for 3 min measured at 114 hr post-treatment relative to control; format: functional
[28] = system: Rhynchophorus ferrugineus; assay: Pesticidal activity against Rhynchophorus ferrugineus (red palm weevil) larvae assessed as mortality at 6 ppm, po at 48 hr post-treatment relative to control; format: functional
[29] = system: Rhynchophorus ferrugineus; assay: Pesticidal activity against Rhynchophorus ferrugineus (red palm weevil) cocoon assessed as mortality at 20 ppm administered by dipping for 3 min measured at 48 hr post-treatment relative to control; format: functional
[30] = system: Rhynchophorus ferrugineus; assay: Pesticidal activity against adult Rhynchophorus ferrugineus (red palm weevil) assessed as time required for reversible knockdown at 3.5 ml/l administered topically; format: functional
[31] = system: Rhynchophorus ferrugineus; assay: Contact toxicity against Rhynchophorus ferrugineus (red palm weevil) adults assessed as time required for 100% reversible knockdown at 1.5 ml/l for 5 min; format: functional
[32] = system: Rhynchophorus ferrugineus; assay: Pesticidal activity against Rhynchophorus ferrugineus (red palm weevil) cocoon assessed as mortality at 0.5 ppm administered by dipping for 3 min measured at 90 hr post-treatment relative to control; format: functional
[33] = system: Rhynchophorus ferrugineus; assay: Pesticidal activity against Rhynchophorus ferrugineus (red palm weevil) cocoon assessed as mortality of emerged adult at low concentration administered by dipping for 3 min measured up to 1 week after emergence; format: functional, organism-based
[34] = system: Rhynchophorus ferrugineus; assay: Pesticidal activity against Rhynchophorus ferrugineus (red palm weevil) larvae infested date palm tree assessed as non-feeding status of collected live stage larvae at 20 ml/4l of water applied through soil-drench irrigation measured after 3 weeks relative to control; format: functional, organism-based
[35] = system: Rhynchophorus ferrugineus; assay: Pesticidal activity against adult Rhynchophorus ferrugineus (red palm weevil) assessed as mortality at 2 ppm, po at 114 hr post-treatment relative to control; format: functional
[36] = system: Rhynchophorus ferrugineus; assay: Pesticidal activity against Rhynchophorus ferrugineus (red palm weevil) larvae assessed as mortality at 1000 ppm administered topically at 36 hr post-treatment; format: functional
[37] = system: Rhynchophorus ferrugineus; assay: Pesticidal activity against Rhynchophorus ferrugineus (red palm weevil) cocoons assessed as time required for total mortality at 3.5 ml/l administered by dipping for 10 secs; format: functional
[38] = system: Rhynchophorus ferrugineus; assay: Pesticidal activity Rhynchophorus ferrugineus (red palm weevil) larvae assessed as time required after hatching for 100% mortality at 3.5 ml/l administered topically measured up to 14 days relative to control; format: functional
[39] = system: Rhynchophorus ferrugineus; assay: Pesticidal activity against adult Rhynchophorus ferrugineus (red palm weevil) assessed as mortality at 300 ppm administered topically at 72 hr post-treatment; format: functional
[40] = system: Rhynchophorus ferrugineus; assay: Contact toxicity against Rhynchophorus ferrugineus (red palm weevil) adults assessed as time required for 100% mortality at 2.5 ml/l for 5 min; format: functional
[41] = system: Rhynchophorus ferrugineus; assay: Pesticidal activity against Rhynchophorus ferrugineus (red palm weevil) cocoon assessed as mortality at 2 ppm administered by dipping for 3 min measured at 18 hr post-treatment relative to control; format: functional

## O=[N+]([O-])/N=C1\NCCN1Cc1ccc(Cl)nc1 [IMIDACLOPRID]
[1]
  Activity: 100%
[2]
  Time: 4 days
[3]
  Time: 3.2 days
[4]
  Time: 8.8 days
[5]
  Time: 10.1 days
[6]
  Time: 10 days
[7]
  Activity: 73.2%
[8]
  Activity: 100%
[9]
  Time: 2.2 days
[10]
  Time: 4.2 days
[11]
  Activity: 38.9%
[12]
  Activity: 100%
[13]
  Activity: Active
[14]
  Activity: 0%
[15]
  Activity: 72.2%
[16]
  Time: 6 days
[17]
  Activity: 76.7%
[18]
  Time: 10.1 days
[19]
  Activity: 66.7%
[20]
  Activity: 0%
[21]
  Activity: 72.2%
[22]
  Activity: 100%
[23]
  Activity: 100%
[24]
  Activity: 100%
[25]
  Activity: 0%
[26]
  Activity: 72.2%
[27]
  Activity: 72.2%
[28]
  Activity: 100%
[29]
  Activity: 44.4%
[30]
  Time: 1 days
[31]
  Time: 4.2 days
[32]
  Activity: 38.9%
[33]
  Activity: inactive
[34]
  Activity: Active
[35]
  Activity: 100%
[36]
  Activity: 72.2%
[37]
  Time: 6 days
[38]
  Time: 4 days
[39]
  Activity: 100%
[40]
  Time: 7.2 days
[41]
  Activity: 0%
